Measurements as given in the kinase profiling compilation of Christmann-Franck et al. (2016).

Experiments:
Test in all cases: KINOMEscan competition binding
Settings in all cases: compound 10.0 µM
AKT3 (human) = AKT3 (human) (UniProt Q9Y243)
TRPM6 (human) = TRPM6 (human) (UniProt Q9BX84)
ABL2 (human) = ABL2 (human) (UniProt P42684)
MAP3K2 (human) = MAP3K2 (human) (UniProt Q9Y2U5)
RPS6KB1 (human) = RPS6KB1 (human) (UniProt P23443)
MAP3K1 (human) = MAP3K1 (human) (UniProt Q13233)
DYRK2 (human) = DYRK2 (human) (UniProt Q92630)
STK4 (human) = STK4 (human) (UniProt Q13043)
DCLK3 (human) = DCLK3 (human) (UniProt Q9C098)
[1] = test system: LRRK2 (human), Q5S007 [G2019S]
CRK2 (P.falciparum) = CRK2 (P.falciparum) (UniProt P61075)
STK32B (human) = STK32B (human) (UniProt Q9NY57)
ULK3 (human) = ULK3 (human) (UniProt Q6PHR2)
HIPK2 (human) = HIPK2 (human) (UniProt Q9H2X6)
PIM1 (human) = PIM1 (human) (UniProt P11309)
RPS6KA1 KD2 (human) = RPS6KA1 KD2 (human) (UniProt Q15418)
EPHB4 (human) = EPHB4 (human) (UniProt P54760)
MAP3K12 (human) = MAP3K12 (human) (UniProt Q12852)
CDC42BPB (human) = CDC42BPB (human) (UniProt Q9Y5S2)
LRRK2 (human) = LRRK2 (human) (UniProt Q5S007)
DSTYK (human) = DSTYK (human) (UniProt Q6XUX3)
PIK3C2G (human) = PIK3C2G (human) (UniProt O75747)
PIK3CB (human) = PIK3CB (human) (UniProt P42338)
PIK3CA (human) = PIK3CA (human) (UniProt P42336)
TYRO3 (human) = TYRO3 (human) (UniProt Q06418)
EPHA6 (human) = EPHA6 (human) (UniProt Q9UF33)
EPHA3 (human) = EPHA3 (human) (UniProt P29320)
SIK2 (human) = SIK2 (human) (UniProt Q9H0K1)
TLK1 (human) = TLK1 (human) (UniProt Q9UKI8)
TLK2 (human) = TLK2 (human) (UniProt Q86UE8)
PKN1 (human) = PKN1 (human) (UniProt Q16512)
PAK6 (human) = PAK6 (human) (UniProt Q9NQU5)
GRK1 (human) = GRK1 (human) (UniProt Q15835)
PKN3 (M.tuberculosis) = PKN3 (M.tuberculosis) (UniProt Q6P5Z2)
EPHA7 (human) = EPHA7 (human) (UniProt Q15375)
[2] = test system: PIK3CA (human), P42336 [E542K]
STK11 (human) = STK11 (human) (UniProt Q15831)
EPHB2 (human) = EPHB2 (human) (UniProt P29323)
MAP3K10 (human) = MAP3K10 (human) (UniProt Q02779)
ACVRL1 (human) = ACVRL1 (human) (UniProt P37023)

Sequence of LRRK2 (human) (Q5S007 whole entry, looked up): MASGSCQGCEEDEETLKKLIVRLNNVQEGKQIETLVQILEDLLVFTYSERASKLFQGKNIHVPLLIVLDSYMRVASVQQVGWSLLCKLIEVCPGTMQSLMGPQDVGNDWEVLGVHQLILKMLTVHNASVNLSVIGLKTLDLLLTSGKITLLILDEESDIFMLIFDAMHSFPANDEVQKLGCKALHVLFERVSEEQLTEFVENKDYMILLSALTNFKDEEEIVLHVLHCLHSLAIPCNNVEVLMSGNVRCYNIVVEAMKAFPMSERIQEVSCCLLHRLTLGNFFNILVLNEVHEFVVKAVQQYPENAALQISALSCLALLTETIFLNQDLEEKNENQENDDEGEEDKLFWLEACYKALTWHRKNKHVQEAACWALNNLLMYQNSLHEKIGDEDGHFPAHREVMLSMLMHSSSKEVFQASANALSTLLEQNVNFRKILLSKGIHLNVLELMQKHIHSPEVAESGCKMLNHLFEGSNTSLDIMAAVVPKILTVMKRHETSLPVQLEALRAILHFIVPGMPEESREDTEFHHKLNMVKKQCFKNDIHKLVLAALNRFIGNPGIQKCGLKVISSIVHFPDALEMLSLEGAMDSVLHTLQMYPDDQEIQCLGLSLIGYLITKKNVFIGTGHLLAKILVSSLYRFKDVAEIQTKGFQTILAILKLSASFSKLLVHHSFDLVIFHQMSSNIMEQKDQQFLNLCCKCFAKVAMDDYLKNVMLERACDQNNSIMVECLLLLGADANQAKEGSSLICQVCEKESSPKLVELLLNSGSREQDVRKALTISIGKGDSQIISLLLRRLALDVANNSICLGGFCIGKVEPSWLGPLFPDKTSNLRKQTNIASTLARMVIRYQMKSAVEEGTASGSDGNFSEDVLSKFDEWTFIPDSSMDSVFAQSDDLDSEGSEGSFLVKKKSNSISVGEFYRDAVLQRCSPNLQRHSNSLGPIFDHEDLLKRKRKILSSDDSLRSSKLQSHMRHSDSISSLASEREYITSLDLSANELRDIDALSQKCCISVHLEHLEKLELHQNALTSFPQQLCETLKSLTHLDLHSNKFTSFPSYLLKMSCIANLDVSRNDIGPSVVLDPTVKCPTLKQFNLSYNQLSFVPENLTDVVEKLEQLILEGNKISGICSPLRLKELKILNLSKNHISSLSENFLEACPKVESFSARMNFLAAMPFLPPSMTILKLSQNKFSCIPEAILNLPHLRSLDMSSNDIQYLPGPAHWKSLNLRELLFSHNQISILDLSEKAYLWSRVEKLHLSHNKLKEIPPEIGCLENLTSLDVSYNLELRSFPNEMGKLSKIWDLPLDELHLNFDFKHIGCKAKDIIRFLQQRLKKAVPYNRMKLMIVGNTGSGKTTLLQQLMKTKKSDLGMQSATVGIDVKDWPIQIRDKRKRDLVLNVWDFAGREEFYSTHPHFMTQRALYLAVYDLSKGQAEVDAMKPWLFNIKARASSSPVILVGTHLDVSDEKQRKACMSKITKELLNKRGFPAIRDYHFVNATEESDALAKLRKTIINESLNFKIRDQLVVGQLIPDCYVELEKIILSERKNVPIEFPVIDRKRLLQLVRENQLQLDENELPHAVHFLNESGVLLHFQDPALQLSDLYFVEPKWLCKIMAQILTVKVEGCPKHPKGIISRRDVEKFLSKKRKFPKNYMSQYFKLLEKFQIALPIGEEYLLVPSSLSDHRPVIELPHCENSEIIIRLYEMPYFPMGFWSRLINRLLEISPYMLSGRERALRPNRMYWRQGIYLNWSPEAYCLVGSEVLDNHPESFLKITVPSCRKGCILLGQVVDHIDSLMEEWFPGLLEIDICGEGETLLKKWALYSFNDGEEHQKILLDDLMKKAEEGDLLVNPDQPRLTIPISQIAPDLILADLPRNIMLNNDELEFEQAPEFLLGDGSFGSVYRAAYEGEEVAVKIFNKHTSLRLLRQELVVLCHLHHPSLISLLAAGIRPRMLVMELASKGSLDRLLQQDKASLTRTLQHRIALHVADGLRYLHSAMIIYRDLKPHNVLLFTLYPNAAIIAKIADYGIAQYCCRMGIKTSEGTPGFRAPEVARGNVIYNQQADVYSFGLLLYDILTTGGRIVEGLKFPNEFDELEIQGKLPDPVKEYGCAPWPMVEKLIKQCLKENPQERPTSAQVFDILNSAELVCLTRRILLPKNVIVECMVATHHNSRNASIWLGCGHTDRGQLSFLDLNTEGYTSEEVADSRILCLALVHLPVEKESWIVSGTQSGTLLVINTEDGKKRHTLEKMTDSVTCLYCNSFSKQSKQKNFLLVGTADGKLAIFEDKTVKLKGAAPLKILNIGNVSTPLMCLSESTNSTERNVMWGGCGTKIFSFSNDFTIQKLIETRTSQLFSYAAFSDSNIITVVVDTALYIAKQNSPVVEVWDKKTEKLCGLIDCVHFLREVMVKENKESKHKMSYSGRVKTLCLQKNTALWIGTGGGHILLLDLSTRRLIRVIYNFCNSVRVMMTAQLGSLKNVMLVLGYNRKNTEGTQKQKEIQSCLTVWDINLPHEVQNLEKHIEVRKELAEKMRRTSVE
Sequence of MAP3K2 (human) (Q9Y2U5 whole entry, looked up): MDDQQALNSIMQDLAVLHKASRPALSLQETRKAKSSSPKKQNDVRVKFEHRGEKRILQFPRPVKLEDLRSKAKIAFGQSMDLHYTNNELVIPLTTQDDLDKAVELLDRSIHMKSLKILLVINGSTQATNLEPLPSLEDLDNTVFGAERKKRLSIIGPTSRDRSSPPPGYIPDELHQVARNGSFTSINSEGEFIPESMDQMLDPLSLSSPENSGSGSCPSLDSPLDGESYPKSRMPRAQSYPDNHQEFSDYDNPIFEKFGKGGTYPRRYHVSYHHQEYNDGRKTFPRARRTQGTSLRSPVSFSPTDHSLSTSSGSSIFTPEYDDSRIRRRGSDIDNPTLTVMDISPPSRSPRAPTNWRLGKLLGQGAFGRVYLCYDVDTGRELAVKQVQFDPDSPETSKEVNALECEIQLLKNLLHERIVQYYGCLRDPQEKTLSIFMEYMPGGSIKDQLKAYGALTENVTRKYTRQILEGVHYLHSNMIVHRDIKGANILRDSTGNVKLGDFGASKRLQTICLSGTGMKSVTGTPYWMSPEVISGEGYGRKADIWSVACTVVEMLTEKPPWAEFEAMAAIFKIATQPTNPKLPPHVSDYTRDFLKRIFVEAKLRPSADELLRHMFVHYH
Sequence of PIK3CB (human) (P42338 whole entry, looked up): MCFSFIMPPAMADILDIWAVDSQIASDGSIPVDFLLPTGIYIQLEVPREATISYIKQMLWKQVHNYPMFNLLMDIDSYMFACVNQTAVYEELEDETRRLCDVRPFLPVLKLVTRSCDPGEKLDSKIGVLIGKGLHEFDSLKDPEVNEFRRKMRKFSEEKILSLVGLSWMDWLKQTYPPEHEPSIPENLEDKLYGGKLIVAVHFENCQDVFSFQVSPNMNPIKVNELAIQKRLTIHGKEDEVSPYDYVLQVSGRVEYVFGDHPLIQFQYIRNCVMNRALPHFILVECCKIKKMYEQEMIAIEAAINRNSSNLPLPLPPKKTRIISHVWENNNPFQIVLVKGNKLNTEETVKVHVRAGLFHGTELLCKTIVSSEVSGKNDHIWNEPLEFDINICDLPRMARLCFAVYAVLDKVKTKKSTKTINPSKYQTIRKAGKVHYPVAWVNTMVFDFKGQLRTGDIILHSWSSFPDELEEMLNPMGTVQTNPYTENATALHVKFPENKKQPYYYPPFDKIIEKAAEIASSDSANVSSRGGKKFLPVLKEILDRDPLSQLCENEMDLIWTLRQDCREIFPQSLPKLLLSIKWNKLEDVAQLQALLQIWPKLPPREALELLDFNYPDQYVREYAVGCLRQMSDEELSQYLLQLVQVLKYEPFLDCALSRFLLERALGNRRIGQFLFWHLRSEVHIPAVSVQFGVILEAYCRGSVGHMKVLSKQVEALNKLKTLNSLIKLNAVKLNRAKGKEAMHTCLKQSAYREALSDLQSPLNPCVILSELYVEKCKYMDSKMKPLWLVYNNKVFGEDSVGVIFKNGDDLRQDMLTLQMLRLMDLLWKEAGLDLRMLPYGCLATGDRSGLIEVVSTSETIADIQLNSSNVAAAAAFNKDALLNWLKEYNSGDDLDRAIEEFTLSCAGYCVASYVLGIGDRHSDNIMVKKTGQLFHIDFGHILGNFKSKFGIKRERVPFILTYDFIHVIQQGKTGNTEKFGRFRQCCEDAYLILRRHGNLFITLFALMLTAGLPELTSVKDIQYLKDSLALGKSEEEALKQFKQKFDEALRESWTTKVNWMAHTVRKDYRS
Sequence of TLK2 (human) (Q86UE8 whole entry, looked up): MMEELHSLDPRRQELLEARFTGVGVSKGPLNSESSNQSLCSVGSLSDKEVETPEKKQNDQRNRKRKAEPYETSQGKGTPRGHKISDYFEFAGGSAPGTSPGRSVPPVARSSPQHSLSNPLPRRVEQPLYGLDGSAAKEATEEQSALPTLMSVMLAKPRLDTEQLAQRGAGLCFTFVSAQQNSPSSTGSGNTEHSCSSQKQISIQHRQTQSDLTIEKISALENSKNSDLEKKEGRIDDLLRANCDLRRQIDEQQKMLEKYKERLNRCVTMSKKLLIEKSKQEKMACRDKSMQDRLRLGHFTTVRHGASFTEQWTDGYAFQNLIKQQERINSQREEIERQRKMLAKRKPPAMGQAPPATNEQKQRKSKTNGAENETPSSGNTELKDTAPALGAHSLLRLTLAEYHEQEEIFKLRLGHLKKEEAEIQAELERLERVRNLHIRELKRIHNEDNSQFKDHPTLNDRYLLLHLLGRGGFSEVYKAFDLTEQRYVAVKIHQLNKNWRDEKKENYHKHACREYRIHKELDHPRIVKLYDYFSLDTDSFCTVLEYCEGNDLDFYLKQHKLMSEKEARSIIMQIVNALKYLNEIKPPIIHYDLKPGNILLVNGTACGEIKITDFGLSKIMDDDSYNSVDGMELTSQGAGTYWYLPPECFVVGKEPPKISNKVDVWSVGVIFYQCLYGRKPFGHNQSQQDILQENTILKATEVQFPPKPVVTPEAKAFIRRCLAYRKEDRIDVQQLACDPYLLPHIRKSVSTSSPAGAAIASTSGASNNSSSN
Sequence of LRRK2 (human), Q5S007 [G2019S] (Q5S007 whole entry G2019S, looked up): as the sequence (Q5S007 whole entry, looked up) above, with G2019S counted along it

Structure (SMILES) | kinase still bound, per cent of control (AKT3 (human)) [%] | kinase still bound, per cent of control (TRPM6 (human)) [%] | kinase still bound, per cent of control (ABL2 (human)) [%] | kinase still bound, per cent of control (MAP3K2 (human)) [%] | kinase still bound, per cent of control (RPS6KB1 (human)) [%] | kinase still bound, per cent of control (MAP3K1 (human)) [%] | kinase still bound, per cent of control (DYRK2 (human)) [%] | kinase still bound, per cent of control (STK4 (human)) [%] | kinase still bound, per cent of control (DCLK3 (human)) [%] | kinase still bound, per cent of control [1] [%] | kinase still bound, per cent of control (CRK2 (P.falciparum)) [%] | kinase still bound, per cent of control (STK32B (human)) [%] | kinase still bound, per cent of control (ULK3 (human)) [%] | kinase still bound, per cent of control (HIPK2 (human)) [%] | kinase still bound, per cent of control (PIM1 (human)) [%] | kinase still bound, per cent of control (RPS6KA1 KD2 (human)) [%] | kinase still bound, per cent of control (EPHB4 (human)) [%] | kinase still bound, per cent of control (MAP3K12 (human)) [%] | kinase still bound, per cent of control (CDC42BPB (human)) [%] | kinase still bound, per cent of control (LRRK2 (human)) [%] | further results
CC1=C(C(=O)Nc2cc3cn[nH]c3cc2F)C(c2ccc(C(F)(F)F)cc2)CC(=O)N1 (stereo not given) | 40 | 70 | 86 | 79 | 50 | 90 | 100 | 100 | 70 | 70 | 100 | 52 | 99 | 87 | 88 | 83 | 88 | 69 | 22 | 100 | kinase still bound, per cent of control (DSTYK (human)): 69%; kinase still bound, per cent of control (PIK3C2G (human)): 52%; kinase still bound, per cent of control (PIK3CB (human)): 86%; kinase still bound, per cent of control (PIK3CA (human)): 80%; kinase still bound, per cent of control (TYRO3 (human)): 100%; kinase still bound, per cent of control (EPHA6 (human)): 95%; kinase still bound, per cent of control (EPHA3 (human)): 88%; kinase still bound, per cent of control (SIK2 (human)): 99%; kinase still bound, per cent of control (TLK1 (human)): 90%; kinase still bound, per cent of control (TLK2 (human)): 100%; kinase still bound, per cent of control (PKN1 (human)): 19%; kinase still bound, per cent of control (PAK6 (human)): 90%; kinase still bound, per cent of control (GRK1 (human)): 78%; kinase still bound, per cent of control (PKN3 (M.tuberculosis)): 92%; kinase still bound, per cent of control (EPHA7 (human)): 80%; kinase still bound, per cent of control [2]: 92%; kinase still bound, per cent of control (STK11 (human)): 100%; kinase still bound, per cent of control (EPHB2 (human)): 100%; kinase still bound, per cent of control (MAP3K10 (human)): 92%; kinase still bound, per cent of control (ACVRL1 (human)): 100%
CCN1CCN(Cc2ccc(NC(=O)c3ccc(C)c(/C=C/c4cnc5[nH]ccc5c4OC)c3)cc2C(F)(F)F)CC1 | 100 | 100 | 0 | 0.65 | 9 | 71 | 78 | 21 | 3.2 | 18 | 93 | 100 | 1.5 | 41 | 100 | 20 | 2.7 | 22 | 65 | 12 | kinase still bound, per cent of control (DSTYK (human)): 36%; kinase still bound, per cent of control (PIK3C2G (human)): 82%; kinase still bound, per cent of control (PIK3CB (human)): 100%; kinase still bound, per cent of control (PIK3CA (human)): 100%; kinase still bound, per cent of control (TYRO3 (human)): 100%; kinase still bound, per cent of control (EPHA6 (human)): 0%; kinase still bound, per cent of control (EPHA3 (human)): 4.8%; kinase still bound, per cent of control (SIK2 (human)): 30%; kinase still bound, per cent of control (TLK1 (human)): 100%; kinase still bound, per cent of control (TLK2 (human)): 93%; kinase still bound, per cent of control (PKN1 (human)): 16%; kinase still bound, per cent of control (PAK6 (human)): 54%; kinase still bound, per cent of control (GRK1 (human)): 96%; kinase still bound, per cent of control (PKN3 (M.tuberculosis)): 89%; kinase still bound, per cent of control (EPHA7 (human)): 16%; kinase still bound, per cent of control [2]: 100%; kinase still bound, per cent of control (STK11 (human)): 7.9%; kinase still bound, per cent of control (EPHB2 (human)): 0%; kinase still bound, per cent of control (MAP3K10 (human)): 20%; kinase still bound, per cent of control (ACVRL1 (human)): 100%
CNC(=O)Nc1ccc(-c2nc(N3CC4CCC(C3)O4)c3cnn(C4CCC5(CC4)OCCO5)c3n2)cc1 | 86 | 100 | 84 | 95 | 100 | 58 | 90 | 100 | 100 | 65 | 100 | 86 | 92 | 100 | 100 | 91 | 100 | 93 | 100 | 82 | kinase still bound, per cent of control (DSTYK (human)): 100%; kinase still bound, per cent of control (PIK3C2G (human)): 22%; kinase still bound, per cent of control (PIK3CB (human)): 46%; kinase still bound, per cent of control (PIK3CA (human)): 16%; kinase still bound, per cent of control (TYRO3 (human)): 100%; kinase still bound, per cent of control (EPHA6 (human)): 98%; kinase still bound, per cent of control (EPHA3 (human)): 100%; kinase still bound, per cent of control (SIK2 (human)): 97%; kinase still bound, per cent of control (TLK1 (human)): 86%; kinase still bound, per cent of control (TLK2 (human)): 100%; kinase still bound, per cent of control (PKN1 (human)): 100%; kinase still bound, per cent of control (PAK6 (human)): 100%; kinase still bound, per cent of control (GRK1 (human)): 100%; kinase still bound, per cent of control (PKN3 (M.tuberculosis)): 94%; kinase still bound, per cent of control (EPHA7 (human)): 87%; kinase still bound, per cent of control [2]: 14%; kinase still bound, per cent of control (STK11 (human)): 80%; kinase still bound, per cent of control (EPHB2 (human)): 78%; kinase still bound, per cent of control (MAP3K10 (human)): 100%; kinase still bound, per cent of control (ACVRL1 (human)): 100%
